Experiments:
Format in all cases: physicochemical
[1] = Photothermal conversion under continuous 808 nm laser irradiation, 1.5 W/cm^2; settings: 808 nm NIR laser
Procedure: DdH2O, blank nanoparticles, 0.012 mg/mL free ICG, nanoparticles containing ICG and Fe3O4 (concentration of ICG is 0.012 mg/mL) and nanoparticles containing ICG and oleic acid modified Fe3O4 were continuously irradiated at 1.5 W/cm2 by 808 nm laser emitter. […] Then, PLGA nanoparticles coated with oleic acid modified Fe3O4 and free oleic acid modified Fe3O4 were irradiated continuously. […] But the heat production capacity is low. Then, we used intermittent irradiation method, every 3 minutes to raise the temperature to the highest point, and stopped the irradiation for 7 minutes to bring the temperature back to room temperature until the temperature no longer increased.
To evaluate its photothermal conversion performance, ICG/OA-Fe3O4@PLGA solutions were irradiated with an 808 nm NIR laser (1.5 W/cm^2, FIGS. 3A-3C). […] No significant temperature changes were found in Blank-NP solution and DI water. Only negligible temperature increase of Blank-NP solution and DI water were found.

[2] = Photothermal heating under 808 nm NIR laser, 1.0 W/cm^2 for 10 min; settings: 1.0 W/cm^2, 10 min, 1 mL aqueous, 12 μg/mL ICG or 11.6 μg/mL Fe
Procedure: To synthesize an effectiveness photothermal agents, we explore the synergistic effect of ICG and OA-Fe3O4. Various photothermal agents were exposed to 808 nm NIR laser irradiation with a power density of 1.0 W/cm^2 for 10 min. Aqueous suspensions of ICG/OA-Fe3O4@NPs, mixture of free ICG and OA-Fe3O4 (1 mL solution with 12 μg/mL ICG or 11.6 μg/mL Fe) reach the maximum temperatures of 45.9° C., 46.6° C.

[3] = Photothermal stability, laser ON 3 min / OFF 7 min cycles; settings: NIR laser 3 min ON, 7 min OFF
Procedure: DdH2O, blank nanoparticles, 0.012 mg/mL free ICG, nanoparticles containing ICG and Fe3O4 (concentration of ICG is 0.012 mg/mL) and nanoparticles containing ICG and oleic acid modified Fe3O4 were continuously irradiated at 1.5 W/cm2 by 808 nm laser emitter. […] Then, PLGA nanoparticles coated with oleic acid modified Fe3O4 and free oleic acid modified Fe3O4 were irradiated continuously.
ICG@NPs, free ICG, ICG/OA-Fe3O4@NPs, free ICG/OA-Fe3O4 were irradiated with the NIR laser for 3 min (Laser ON), followed by natural cooling for 7 min (Laser OFF).
Furthermore, to investigate the photothermal conversion stability of ICG/OA-Fe3O4@PLGA for practical applications, solutions of ICG/OA-Fe3O4@PLGA, ICG/Fe3O4@PLGA, ICG@PLGA, Blank-NPs and free ICG were irradiated with the NIR laser for 3 min (Laser ON), followed by natural cooling for 7 min (Laser OFF).

CC1(C)C(/C=C/C=C/C=C/C=C2\N(CCCCS(=O)(=O)O)c3ccc4ccccc4c3C2(C)C)=[N+](CCCCS(=O)(=O)[O-])c2ccc3ccccc3c21 [free ICG, Indocyanine green]
time high temperature was maintained [1]: only a few minutes
temperature reached by the solution ([1]; 500 μg mL-1): 47.3 °C
maximum temperature [2]: 41.8 °C
maxim temperature, laser ON/OFF cycle 1 ([3]; 1st of six cycles): 40.9 °C
maxim temperature, laser ON/OFF cycle 2 ([3]; 2nd of six cycles): 37.1 °C
maxim temperature, laser ON/OFF cycle 3 ([3]; 3rd of six cycles): 33.8 °C
maxim temperature, laser ON/OFF cycle 4 ([3]; 4th of six cycles): 32.8 °C
maxim temperature, laser ON/OFF cycle 5 ([3]; 5th of six cycles): 30.7 °C
maxim temperature, laser ON/OFF cycle 6 ([3]; 6th of six cycles): 30.1 °C

Source: patent US20260216335A1, “COMPOSITIONS AND METHODS FOR TARGETING AND TREATING TUMOR” (JIANGSU CODE BIOMEDICAL TECHNOLOGY CO., LTD., priority 2023, published 2026)
